Laboratory results published in ChEMBL document CHEMBL1201862, “PubChem BioAssay data set” (2004).
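These data come from cells grown in 96-well plates and exposed to compound for 48 hours at five concentrations. Abbreviation: GI50, concentration required for 50% inhibition of growth.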 Calls of active or inactive are those of the source. Rule as the data show it: active = GI50 up to about 1.1 µM and inactive = higher.

What was measured:
Assay in all cases: inhibition of tumour cell growth, NCI panel, 48 h
ACHN = system: ACHN
CAKI-1 = system: CAKI-1
HCC 2998 = system: HCC 2998
HCT-15 = system: HCT-15
HL-60 = system: HL-60
HOP-92 = system: HOP-92
K562 = system: K562
KM12 = system: KM12
M14 = system: M14
NCI-H23 = system: NCI-H23
OVCAR-4 = system: OVCAR-4
SF-268 = system: SF-268
SK-OV-3 = system: SK-OV-3
SN12C = system: SN12C
SNB-75 = system: SNB-75
U-251 = system: U-251
UO-31 = system: UO-31
RXF 393 = system: RXF 393

SMILES	GI50 (ACHN)	GI50 (CAKI-1)	GI50 (HCC 2998)	GI50 (HCT-15) [µM]	GI50 (HL-60)	GI50 (HOP-92)	GI50 (K562)	GI50 (KM12)	GI50 (M14)	GI50 (NCI-H23)	GI50 (OVCAR-4)	GI50 (SF-268)	GI50 (SK-OV-3)	GI50 (SN12C)	GI50 (SNB-75)	GI50 (U-251)	GI50 (UO-31)	GI50 (RXF 393)
O=C(CC(=O)Nc1ccccc1O)Nc1ccccc1O	9.86 µM (inactive)	68.1 µM (inactive)	24.7 µM (inactive)	5.68	1.83 µM (inactive)	> 100 µM (inactive)	6.79 µM (inactive)	10.8 µM (inactive)	16.1 µM (inactive)	22.2 µM (inactive)	34.3 µM (inactive)	26.9 µM (inactive)	> 100 µM (inactive)	16.3 µM (inactive)	18.6 µM (inactive)	23.9 µM (inactive)	12.1 µM (inactive)	
CCOC(=O)c1ccc(/C(C)=N/NC(N)=S)cc1	> 100 µM (inactive)		> 100 µM (inactive)	> 100	> 100 µM (inactive)	> 100 µM (inactive)	> 100 µM (inactive)		> 100 µM (inactive)	> 100 µM (inactive)	> 100 µM (inactive)		> 100 µM (inactive)	> 100 µM (inactive)	> 100 µM (inactive)	> 100 µM (inactive)		> 100 µM (inactive)
COc1ccc(-c2cn3ccsc3n2)cc1	> 100 µM (inactive)	> 100 µM (inactive)	> 100 µM (inactive)	39.6	24.7 µM (inactive)	> 100 µM (inactive)	55.2 µM (inactive)	> 100 µM (inactive)	> 100 µM (inactive)	> 100 µM (inactive)	> 100 µM (inactive)	> 100 µM (inactive)	> 100 µM (inactive)	> 100 µM (inactive)	> 100 µM (inactive)	75.2 µM (inactive)	> 100 µM (inactive)	
CCOC(=O)[C@@]12C(C)=CC(=O)O[C@]1(C)C1C(=O)NC(=O)C12 (stereo partly specified)	> 100 µM (inactive)		> 100 µM (inactive)		> 100 µM (inactive)	22.1 µM (inactive)	> 100 µM (inactive)	> 100 µM (inactive)	> 100 µM (inactive)	> 100 µM (inactive)	> 100 µM (inactive)		> 100 µM (inactive)		85.1 µM (inactive)	> 100 µM (inactive)	> 100 µM (inactive)	> 100 µM (inactive)
O=[N+]([O-])c1ccccc1C1N2CCCCC2[C@@H]2c3[nH]c4ccccc4c3CCN12 (stereo partly specified)	12.4 µM (inactive)	14 µM (inactive)		10.9	3.7 µM (inactive)	15.1 µM (inactive)	3.57 µM (inactive)		13.7 µM (inactive)	14.4 µM (inactive)	17.3 µM (inactive)	11.6 µM (inactive)	17.9 µM (inactive)	13.6 µM (inactive)		15.6 µM (inactive)	11.3 µM (inactive)	12.6 µM (inactive)
Cc1nn(C)c(=O)c2nn(-c3ccccc3)c(C)c12	> 100 µM (inactive)	> 100 µM (inactive)	> 100 µM (inactive)	> 100	> 100 µM (inactive)		> 100 µM (inactive)	> 100 µM (inactive)	> 100 µM (inactive)	> 100 µM (inactive)	> 100 µM (inactive)	> 100 µM (inactive)	> 100 µM (inactive)	> 100 µM (inactive)	> 100 µM (inactive)	> 100 µM (inactive)	> 100 µM (inactive)	> 100 µM (inactive)
Clc1ccc(Cc2nc3ccccc3s2)c(Cl)c1	17.5 µM (inactive)	17.4 µM (inactive)	18.6 µM (inactive)	16.3	15.5 µM (inactive)		14.8 µM (inactive)	16.6 µM (inactive)	16.4 µM (inactive)	> 10 µM (inactive)	13.2 µM (inactive)	15.7 µM (inactive)	28.2 µM (inactive)	16.5 µM (inactive)	14.7 µM (inactive)		16.4 µM (inactive)	20.9 µM (inactive)
O=[N+]([O-])c1ccc(C2=Nc3ccccc3[S+]([O-])C(c3ccccc3)C2)cc1 (stereo unspecified)	21.4 µM (inactive)	18.8 µM (inactive)	18.6 µM (inactive)	27	16.9 µM (inactive)		10.9 µM (inactive)	15.3 µM (inactive)	20.2 µM (inactive)	18.2 µM (inactive)	20.1 µM (inactive)	27.9 µM (inactive)	31.9 µM (inactive)	23.6 µM (inactive)	19 µM (inactive)		16.7 µM (inactive)	14.9 µM (inactive)
CNc1ccc([N+](=O)[O-])c2c(NCCCN(C)C)ccnc12	> 100 µM (inactive)	> 100 µM (inactive)	> 100 µM (inactive)	> 100	> 100 µM (inactive)		> 100 µM (inactive)	> 100 µM (inactive)	> 100 µM (inactive)	99.1 µM (inactive)	> 100 µM (inactive)	> 100 µM (inactive)	> 100 µM (inactive)	> 100 µM (inactive)		> 100 µM (inactive)	> 100 µM (inactive)	
O=C(c1ccccc1)c1ccc2cccc(O)c2n1	37.5 µM (inactive)	76.4 µM (inactive)	40.1 µM (inactive)	23.6			9.23 µM (inactive)	74.5 µM (inactive)	13.8 µM (inactive)	22.6 µM (inactive)	67.8 µM (inactive)	27.5 µM (inactive)		38.8 µM (inactive)	30.5 µM (inactive)	18.5 µM (inactive)	34.4 µM (inactive)	16.4 µM (inactive)
CCc1cccc(C(C)C)c1NC(=O)/C(=N\NC(N)=O)C(C(=O)OC)c1cnc2ccccc2n1 (stereo unspecified)	62.7 µM (inactive)	> 100 µM (inactive)	40.6 µM (inactive)	39.2	31.8 µM (inactive)		37.2 µM (inactive)	41.6 µM (inactive)	39.6 µM (inactive)	24.8 µM (inactive)	87.7 µM (inactive)	> 100 µM (inactive)	> 100 µM (inactive)	35 µM (inactive)	47.4 µM (inactive)	40.2 µM (inactive)	> 100 µM (inactive)	50 µM (inactive)
O=C(/C=C(\O)C(=O)O)/C=C(\O)c1ccccc1	> 4.65 µM (inactive)	> 4.65 µM (inactive)		> 4.65	> 4.65 µM (inactive)		> 4.65 µM (inactive)		> 100 µM (inactive)		> 4.65 µM (inactive)	> 4.65 µM (inactive)	> 4.65 µM (inactive)	> 4.65 µM (inactive)	> 4.65 µM (inactive)	> 4.65 µM (inactive)		> 100 µM (inactive)
O=[N+]([O-])c1cccc(C(O)/C(=N/Nc2ccccc2)C2Nc3ccc([N+](=O)[O-])cc3N=C2O)c1 (stereo unspecified)	24.5 µM (inactive)		33.4 µM (inactive)	14.4	10.8 µM (inactive)	> 100 µM (inactive)	30.5 µM (inactive)	27.8 µM (inactive)	42.1 µM (inactive)	> 100 µM (inactive)	78.5 µM (inactive)	93.5 µM (inactive)	> 100 µM (inactive)	> 100 µM (inactive)	74 µM (inactive)	88.1 µM (inactive)	27.5 µM (inactive)	> 100 µM (inactive)
COC(=O)CCC(=O)C(C#N)c1ccc(Cl)cc1Cl (stereo unspecified)	> 100 µM (inactive)	> 100 µM (inactive)		> 100	> 100 µM (inactive)	> 100 µM (inactive)	> 100 µM (inactive)	> 100 µM (inactive)	> 100 µM (inactive)	> 100 µM (inactive)		> 100 µM (inactive)	> 100 µM (inactive)	> 100 µM (inactive)	> 100 µM (inactive)	> 100 µM (inactive)	> 100 µM (inactive)	
CCOC(=O)NC(=O)c1cn(CCCOC(=O)CCCCCCCCCCC(=O)OCCCn2cc(C(=O)NC(=O)OCC)c(=O)[nH]c2=O)c(=O)[nH]c1=O	> 100 µM (inactive)		> 100 µM (inactive)		> 100 µM (inactive)	> 100 µM (inactive)	> 100 µM (inactive)	> 100 µM (inactive)	> 100 µM (inactive)	> 100 µM (inactive)	> 100 µM (inactive)	> 100 µM (inactive)	42.7 µM (inactive)	> 100 µM (inactive)		> 100 µM (inactive)	> 100 µM (inactive)	> 10 µM (inactive)
CC(C)OP(=O)(OC(C)C)/C(N)=N/Nc1ccc([N+](=O)[O-])cc1	69.8 µM (inactive)	> 100 µM (inactive)	> 100 µM (inactive)	> 100	58.3 µM (inactive)	46.7 µM (inactive)	77.6 µM (inactive)	> 100 µM (inactive)	> 100 µM (inactive)	63 µM (inactive)	> 100 µM (inactive)	> 100 µM (inactive)		> 100 µM (inactive)	81.7 µM (inactive)	> 100 µM (inactive)	61.8 µM (inactive)	
O=C(Cc1nc2ccccc2s1)Nc1cccc(C(F)(F)F)c1	13.6 µM (inactive)	16.7 µM (inactive)	15.6 µM (inactive)	12.4	3.59 µM (inactive)		9.16 µM (inactive)	15.2 µM (inactive)	15.6 µM (inactive)	14.8 µM (inactive)	16.2 µM (inactive)	14.8 µM (inactive)	29.5 µM (inactive)	16.1 µM (inactive)	13.7 µM (inactive)		14.5 µM (inactive)	18.2 µM (inactive)
c1ccc(C2N3CCCCC3[C@@H]3c4[nH]c5ccccc5c4CCN23)nc1 (stereo partly specified)	> 100 µM (inactive)	> 100 µM (inactive)		> 100	59.7 µM (inactive)	> 100 µM (inactive)	94 µM (inactive)		> 100 µM (inactive)	> 100 µM (inactive)	> 100 µM (inactive)	47.9 µM (inactive)	> 100 µM (inactive)	> 100 µM (inactive)	68.7 µM (inactive)	> 100 µM (inactive)	> 100 µM (inactive)	33.3 µM (inactive)
